Laboratory results reported in US7285543B2, “Purine inhibitors of fructose-1,6-bisphosphatase” (Metabasis Therapeutics, Inc., priority 1997, dated 2007).

Key:
[1] = biological target: T1, human liver FBPase (Homo sapiens, UniProt P09467); experiment: Inhibition of human liver FBPase (coupled spectrophotometric assay); format: biochemical; conditions: for inhibition of hlFBPase (FIG. 2): result in words
T1 construct: made in house; host or cells: E. coli BL21
T1 sequence (P09467 2-338 limits assumed): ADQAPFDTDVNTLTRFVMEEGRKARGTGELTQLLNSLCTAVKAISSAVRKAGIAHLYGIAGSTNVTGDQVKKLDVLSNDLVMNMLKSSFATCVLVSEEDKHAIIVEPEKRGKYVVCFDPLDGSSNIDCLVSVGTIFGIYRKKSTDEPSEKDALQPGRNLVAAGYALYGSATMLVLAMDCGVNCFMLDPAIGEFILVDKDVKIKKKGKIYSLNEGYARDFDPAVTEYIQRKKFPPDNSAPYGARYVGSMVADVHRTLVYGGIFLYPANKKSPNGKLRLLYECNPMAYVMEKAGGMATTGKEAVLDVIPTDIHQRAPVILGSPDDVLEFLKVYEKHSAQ

[2] = biological target: T2, mouse liver FBPase (Mus musculus, UniProt Q9QXD6); experiment: In vitro inhibition of mouse liver FBPase; format: biochemical
T2 construct: This partially purified fraction was used for enzyme assays; from tissue; host or cells: mouse liver
T2 sequence (Q9QXD6 2-338 limits assumed): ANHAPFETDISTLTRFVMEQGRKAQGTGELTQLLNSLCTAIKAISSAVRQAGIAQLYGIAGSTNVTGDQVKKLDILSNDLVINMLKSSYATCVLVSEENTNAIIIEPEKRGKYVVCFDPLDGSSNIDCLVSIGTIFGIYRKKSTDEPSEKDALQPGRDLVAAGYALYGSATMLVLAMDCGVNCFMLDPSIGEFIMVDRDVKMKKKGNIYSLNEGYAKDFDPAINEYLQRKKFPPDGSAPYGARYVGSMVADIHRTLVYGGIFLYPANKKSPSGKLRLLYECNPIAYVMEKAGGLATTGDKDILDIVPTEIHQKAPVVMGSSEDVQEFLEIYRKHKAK
Protocol: (§1) Mouse liver FBPase was obtained by homogenizing freshly isolated mouse liver in 100 mM Tris-HCl buffer, pH 7.4, containing 1 mM EGTA, and 10% glycerol. […] This fraction was redissolved in the homogenization buffer and desalted on a PD-10 gel filtration column (Biorad) eluted with same. This partially purified fraction was used for enzyme assays. Both rat liver and mouse liver FBPase were assayed as described for human liver FBPase.

[3] = biological target: T3, allosteric AMP binding site of hlFBPase (Homo sapiens, UniProt P09467); experiment: AMP site binding: displacement of 3H-AMP from hlFBPase; conditions: for EC50: 3H-AMP, hlFBPase, read-out: ED50 for AMP displacement; for displacement of AMP from hlFBPase (FIG. 3): result in words
T3 construct: made in house; host or cells: E. coli BL21
T3 sequence (P09467 2-338 limits assumed): T1 sequence (P09467 2-338 limits assumed)
Protocol: To determine whether compounds bind to the allosteric AMP binding site of hlFBPase, the enzyme was incubated with radiolabeled AMP in the presence of a range of test compound concentrations. The reaction mixtures consisted of […] ^3H-AMP (54 mCi/mmol) and […] test compound in 25 mM Tris-HCl, pH 7.4, 100 mM KCl and 1 mM MgCl2. 1.45 mg of homogeneous FBPase (±1 nmole) was added last. After a 1 minute incubation, AMP bound to FBPase was separated from unbound AMP by means of a centrifugal ultrafiltration unit (“Ultrafree-MC”, Millipore) used according to the instructions of the manufacturer. The radioactivity in aliquots (100 μl) of the upper compartment of the unit (the retentate, which contains enzyme and label) and the lower compartment (the filtrate, which contains unbound label) were quantified using a Beckman liquid scintillation counter. The amount of AMP bound to the enzyme was estimated by comparing the counts in the filtrate (the unbound label) to the total counts in the retentate.

[4] = biological target: T4, rat liver FBPase (Rattus norvegicus, UniProt P19112); experiment: In vitro inhibition of rat liver FBPase; format: biochemical
T4 construct: made in house; host or cells: E. coli BL21
T4 sequence (P19112 2-363 limits assumed): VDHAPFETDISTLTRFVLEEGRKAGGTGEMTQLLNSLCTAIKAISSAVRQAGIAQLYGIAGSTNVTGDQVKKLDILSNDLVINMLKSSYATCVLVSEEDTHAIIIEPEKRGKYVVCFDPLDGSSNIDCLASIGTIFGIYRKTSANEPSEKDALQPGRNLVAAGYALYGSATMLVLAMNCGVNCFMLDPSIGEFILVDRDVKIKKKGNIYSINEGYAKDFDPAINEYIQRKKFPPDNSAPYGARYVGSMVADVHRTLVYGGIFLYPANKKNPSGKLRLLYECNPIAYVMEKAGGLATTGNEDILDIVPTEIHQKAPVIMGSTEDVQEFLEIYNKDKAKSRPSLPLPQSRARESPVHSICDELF
Protocol: as §1

[5] = system: rat hepatocytes; experiment: Inhibition of gluconeogenesis (glucose production from lactate/pyruvate) in rat hepatocytes; format: cell-based; conditions: from lactate/pyruvate, isolated rat hepatocytes
Protocol: Hepatocytes were prepared from overnight fasted Sprague-Dawley rats (250-300 g) according to the procedure of Berry and Friend (Berry, M. N., Friend, D. S., J. Cell. Biol. 1969, 43, 506-520) as modified by Groen (Groen, […]., Eur. J. Biochem. 1982, 122, 87-93). […] Incubations were carried out in a 95% oxygen, 5% carbon dioxide atmosphere in closed, 50-mL Falcon tubes submerged in a rapidly shaking water bath (37° C.). After 1 hour, an aliquot (0.25 mL) was removed, transferred to an Eppendorf tube and centrifuged. 50 μl of supernatant was then assayed for glucose content using a Sigma Glucose Oxidase kit as per the manufacturer's instructions.

[6] = Estimation of the oral bioavailability of prodrugs of phosphonic acids (urinary recovery); format: in vivo, rat; conditions: rat, estimated from urinary recovery vs intravenous parent
Protocol: Prodrugs were dissolved in 10% ethanol/90% polyethylene glycol (mw 400) and administered by oral gavage at doses of approximately 20 or 40 mg/kg parent compound equivalents to 6-hour fasted, Sprague Dawley rats (220-240 g). The rats were subsequently placed in metabolic cages and urine was collected for 24 hours. The quantity of parent compound excreted into urine was determined by HPLC analysis. An ODS column eluted with a gradient from potassium phosphate buffer, pH 5.5 to acetonitrile was employed for these measurements. Detection was at 310-325 nm. […] Parent compounds were typically dissolved in dimethyl sulfoxide, and administered via the tail vein in animals that were briefly anesthetized with halothane.

SMILES	IC50 [1]	IC50 [2]	IC50 [4]	also measured
Nc1ncnc2c1ncn2[C@@H]1O[C@H](COP(=O)(O)O)[C@@H](O)[C@H]1O [AMP, reference compound]	1 µM	–	–	inhibition of hlFBPase (FIG. 2) [1]: dose-dependent inhibition
Nc1ncnc2c1nc(-c1ccc(P(=O)(O)O)o1)n2CCC1CCCCC1 [Compound 2.2, N^9-(2-cyclohexylethyl)-8-(2-(5-phosphono)furanyl)adenine]	–	> 20 µM	> 20 µM	EC50 [3]: 35 µM; displacement of AMP from hlFBPase (FIG. 3) [3]: displaced AMP from hlFBPase in a dose-dependent manner; IC50 ([5]; Hepatocyte): 90 µM
Nc1ncnc2c1nc(-c1ccc(P(=O)(O)O)o1)n2Cc1ccc2ccccc2c1 [Compound 2.3, N^9-(2-naphthylmethyl)-8-(2-(5-phosphono)furanyl)adenine]	3.3 µM	> 20 µM	> 20 µM	–
CCn1c(-c2ccc(P(=O)(O)O)o2)nc2c(N)ncnc21 [Compound 2.5, N^9-ethyl-8-(2-(5-phosphono)furanyl)adenine]	–	–	–	inhibition of hlFBPase (FIG. 2) [1]: dose-dependent inhibition
CC(C)Cn1c(-c2ccc(P(=O)(O)O)o2)nc2c(N)ncnc21 [Compound 2.6, N^9-isobutyl-8-(2-(5-phosphono)furanyl)adenine]	–	–	–	IC50 [5]: 18 µM
Nc1ncnc2c1nc(-c1ccc(P(=O)(O)O)o1)n2C1CCCC1 [Compound 2.10, N^9-cyclopentyl-8-(2-(5-phosphono)furanyl)adenine]	2 µM	> 20 µM	–	IC50 ([5]; Hepatocyte): 24 µM
CC(C)(CO)Cn1c(-c2ccc(P(=O)(O)O)o2)nc2c(N)ncnc21 [Compound 2.13, N^9-(1-(3-hydroxyl-2,2-dimethyl)propyl)-8-(2-(5-phosphono)-furanyl)adenine]	4.5 µM	> 20 µM	–	inhibition of hlFBPase (FIG. 2) [1]: dose-dependent inhibition; IC50 ([5]; Hepatocyte): 50 µM
CC(C)(CCl)Cn1c(-c2ccc(P(=O)(O)O)o2)nc2c(N)ncnc21 [Compound 2.14, N^9-(1-(3-chloro-2,2-dimethyl)propyl)-8-(2-(5-phosphono)-furanyl)adenine]	0.9 µM	> 20 µM	> 20 µM	IC50 ([5]; Hepatocyte): 7.5 µM
CC1(C)C=CCC(C)(Cn2c(-c3ccc(P(=O)(O)O)o3)nc3c(N)ncnc32)C1 (centres unmarked) [Compound 2.16, N^9-(1,5,5-trimethyl-3-cyclohexenyl)methyl-8-(2-(5-phosphono)furanyl)-adenine]	1.4 µM	> 20 µM	> 20 µM	IC50 ([5]; Hepatocyte): 12 µM
Nc1ncnc2c1nc(NCCP(=O)(O)O)n2[C@@H]1O[C@H](CO)[C@@H](O)[C@H]1O [Compound 4.1, 8-(2-phosphonoethylamino)-adenosine]	100 µM	> 20 µM	> 20 µM	–
CC(C)(C)Cn1c(COCP(=O)(O)O)nc2c(N)ncnc21 [Compound 5.5, N^9-neopentyl-8-(phosphonomethoxymethyl)-adenine]	10 µM	> 20 µM	> 20 µM	–
Nc1ncnc2c1nc(SCP(=O)(O)O)n2CCC1CCCCC1 [Compound 8.1, N^9-(2-cyclohexylethyl)-8-(phosphonomethylthio)adenine]	23 µM	> 20 µM	> 20 µM	–
CN(C)c1ncnc2c1nc(-c1ccc(P(=O)(O)O)o1)n2CCc1ccccc1 [Compound 10.1, 6-Dimethylamino-N^9-phenethyl-8-(2-(5-phosphono)furanyl)purine]	50 µM	> 20 µM	> 20 µM	–
CSc1nc(N)c2nc(-c3ccc(P(=O)(O)O)o3)n(CC(C)C)c2n1 [Compound 11.1, 6-amino-N^9-isobutyl-2-methylthio-8-(2-(5-phosphono)-furanyl)purine]	0.7 µM	> 20 µM	–	–
CC(C)(C)Cn1c(-c2oc(P(=O)(O)O)c(Cl)c2Cl)nc2c(N)ncnc21 [Compound 12.1, 6-amino-N^9-neopentyl-8-(2-(3,4-dichloro-5-phosphono)furanyl)purine]	13 µM	> 100 µM	–	–
CC(C)(C)Cn1c(-c2ccc(P(=O)(OCOC(=O)C(C)(C)C)OCOC(=O)C(C)(C)C)o2)nc2c(N)ncnc21 [Compound 16.5, 6-Amino-9-neopentyl-8-(2-(5-dipivaloxymethylphosphono)furanyl)purine]	–	–	–	oral bioavailability [6]: 5.3%
NC(=O)c1ncn([C@@H]2O[C@H](COP(=O)(O)O)[C@@H](O)[C@H]2O)c1N [ZMP, aminoimidazolecarboxamideriboside monophosphate, reference compound]	12 µM	–	–	EC50 [3]: 250 µM; displacement of AMP from hlFBPase (FIG. 3) [3]: displaced AMP from hlFBPase in a dose-dependent manner
